In patent publication US12533384B2, “Lactobacillus reuteri CCFM1132 capable of relieving hyperuricemia and application thereof” (Jiangnan University, priority 2020, dated 2026):

Test system: mice with hyperuricemia
Experiment: Serum creatinine of mice with hyperuricemia (Mindray BS480 biochemical analyzer)
Type: in vivo, KunMing mice
Details: 5 mg/kg BW by intragastric administration
Procedure: 24 healthy male KunMing mice with the weight of 24 to 32 g were randomly divided into four groups after a week of acclimatization, namely a control group, a hyperuricemia model group, an L. reuteri CCFM1132 intervention group and an allopurinol intervention group (allopurinol). Except the control group, 500 mg/kg BW hypoxanthine was given to the other groups every day by intragastric administration, and 200 mg/kg BW oteracil potassium was intraperitoneally injected to the other groups 1 h later. At 1 h before processing with oteracil potassium, 100 g/L skim milk was given to the control group and the hyperuricemia model group, L. reuteri CCFM1132 with the concentration of 1.0×10^9 CFU/mouse was given to the L. reuteri CCFM1132 intervention group, and 5 mg/kg BW allopurinol was given to the allopurinol group.
At the end of the experiment, fresh feces of the mice was collected and frozen at −80° C. After the experiment was finished, the mice were subjected to fasting but free for drinking water for 12 h. 0.1 mL/10 g of […] pentobarbital sodium solution was intraperitoneally injected for anesthetization. […] The serum uric acid levels were determined by using a kit method.
Experimental animal groups and processing methods are the same as those of Example 3, and serum creatinine was detected by using a Mindray BS480 biochemical analyzer according to a kit method.

With `Oc1ncnc2[nH]ncc12` [allopurinol] the “serum creatinine reducing effect” value was “does not have the reducing effect”.
